pEC50: −log10 of the molar value. Numbered stars: 1 amine (or outer) side, 2 acyl side, 3 side chain; on linkers, the order of the positions; unused ones are H or OH. Square brackets hold non-standard residues; d marks the D form. Side chains are listed from the residue outwards. Peptide text beside a SMILES is read from it. * marks the point of attachment. Palmitoyl(16-(5-tetrazolyl)) = O=C(CCCCCCCCCCCCCCCc1nnn[nH]1)*; C18 diacid = O=C(O)CCCCCCCCCCCCCCCCC(=O)*; γGlu = O=C(O)[C@H](CCC(=O)[*:2])N[*:1]; Orn = NCCC[C@H](N)C(=O)O; AEEA = NCCOCCOCC(=O)O

Test system in the first series: not listed separately
The series is described as follows: ThT fibrillation assay (lag time and recovery). Type of series: physicochemical. The settings on record: Table 2. The method, then: This has traditionally been measured by visual inspection of the sample. However, that kind of measurement is very subjective and depending on the observer. Therefore, the application of a small molecule indicator probe is much more advantageous. […] Enzymol.
The constant t0 is the time needed to reach 50% of maximum fluorescence. The two important parameters describing fibril formation are the lag-time calculated by t0−2τ and the apparent rate constant kapp 1/τ.
Samples were prepared freshly before each assay. […] The pH of the sample was adjusted to the desired value using appropriate amounts of concentrated NaOH and HCl. Thioflavin T was added to the samples from a stock solution in H2O to a final concentration of 1 μM.
The plate was sealed with Scotch Pad (Qiagen).
Each run was initiated by incubating the plate at the assay temperature for 10 min. The plate was measured every 20 minutes for a desired period of time. Between each measurement, the plate was shaken and heated as described.
The supernatant was filtered through a 0.22 μm filter and an aliquot was transferred to a HPLC vial.
The measurement points were saved in Microsoft Excel format for further processing and curve drawing and fitting was performed using GraphPad Prism. […] The data set may be fitted to Eq. (1).
Turning to `CC(C)C[C@H](NC(=O)[C@H](Cc1ccc(O)cc1)NC(=O)[C@H](CCCCN)NC(=O)[C@H](CO)NC(=O)[C@H](Cc1ccc(O)cc1)NC(=O)[C@H](CC(=O)O)NC(=O)[C@H](CO)NC(=O)[C@@H](NC(=O)[C@H](Cc1ccccc1)NC(=O)[C@@H](NC(=O)CNC(=O)[C@H](CCC(N)=O)NC(=O)[C@H](CO)NC(=O)[C@@H](N)Cc1c[nH]cn1)[C@@H](C)O)[C@@H](C)O)C(=O)N[C@@H](CC(=O)O)C(=O)N[C@@H](CO)C(=O)N[C@@H](CCCCN)C(=O)N[C@@H](CCCCN)C(=O)N[C@@H](C)C(=O)N[C@@H](CCC(N)=O)C(=O)N[C@@H](CCC(=O)O)C(=O)N[C@@H](Cc1ccccc1)C(=O)N[C@H](C(=O)N[C@@H](CCC(N)=O)C(=O)N[C@@H](Cc1c[nH]c2ccccc12)C(=O)N[C@@H](CC(C)C)C(=O)N[C@@H](CC(C)C)C(=O)N[C@@H](CC(N)=O)C(=O)N[C@H](C(=O)O)[C@@H](C)O)C(C)C` [[K^17, K^18, E^21, L^27] Glucagon, H—HSQGTFTSDYSKYLDSKKAQEFVQWLLNT—OH, reference compound] (H-HSQGTFTSDYSKYLDSKKAQEFVQWLLNT-OH), the “ThT assay [Lag time]” value is listed as 1 h.

In another series the target is glucagon receptor (Homo sapiens, UniProt P47871). The series is described as follows: cell-based.
Chain of glucagon receptor (P47871 26-477): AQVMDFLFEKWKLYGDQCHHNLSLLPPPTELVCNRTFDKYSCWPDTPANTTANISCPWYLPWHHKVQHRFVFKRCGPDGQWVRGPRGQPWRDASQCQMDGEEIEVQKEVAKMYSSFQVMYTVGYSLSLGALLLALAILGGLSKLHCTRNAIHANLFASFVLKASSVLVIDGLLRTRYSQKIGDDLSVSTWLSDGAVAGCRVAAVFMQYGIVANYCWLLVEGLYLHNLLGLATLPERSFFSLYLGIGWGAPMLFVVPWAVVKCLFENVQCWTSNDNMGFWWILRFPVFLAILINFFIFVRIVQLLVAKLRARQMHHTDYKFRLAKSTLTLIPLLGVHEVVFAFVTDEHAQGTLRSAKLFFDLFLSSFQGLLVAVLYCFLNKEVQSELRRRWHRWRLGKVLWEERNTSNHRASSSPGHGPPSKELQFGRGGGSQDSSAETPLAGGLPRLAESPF
Details: not given
The compound `CC(C)C[C@H](NC(=O)[C@H](Cc1ccc(O)cc1)NC(=O)[C@H](CCCCN)NC(=O)[C@H](CO)NC(=O)[C@H](Cc1ccc(O)cc1)NC(=O)[C@H](CC(=O)O)NC(=O)[C@H](CO)NC(=O)[C@@H](NC(=O)[C@H](Cc1ccccc1)NC(=O)[C@@H](NC(=O)CNC(=O)[C@H](CCC(N)=O)NC(=O)[C@H](CO)NC(=O)[C@@H](N)Cc1c[nH]cn1)[C@@H](C)O)[C@@H](C)O)C(=O)N[C@@H](CC(=O)O)C(=O)N[C@@H](CO)C(=O)N[C@@H](CCCCN)C(=O)N[C@@H](CCCCN)C(=O)N[C@@H](C)C(=O)N[C@@H](CCC(N)=O)C(=O)N[C@@H](CCC(=O)O)C(=O)N[C@@H](Cc1ccccc1)C(=O)N[C@H](C(=O)N[C@@H](CCCCNC(=O)COCCOCCNC(=O)COCCOCCNC(=O)CC[C@H](NC(=O)CCCCCCCCCCCCCCCc1nnn[nH]1)C(=O)O)C(=O)N[C@@H](Cc1c[nH]c2ccccc12)C(=O)N[C@@H](CC(C)C)C(=O)N[C@@H](CC(C)C)C(=O)N[C@@H](CO)C(=O)N[C@H](C(=O)O)[C@@H](C)O)C(C)C` [Example 70, N^ε24-[2-[2-[2-[[2-[2-[2-[[(4S)-4-carboxy-4-[16-(1H-tetrazol-5-yl)hexadecanoylamino]butanoyl]amino]ethoxy]ethoxy]acetyl]amino]ethoxy]ethoxy]acetyl]-[Lys^17,Lys^18,Glu^21,Lys^24,Leu^27,Ser^28]-Glucagon] (H-HSQGTFTSDYSKYLDSKKAQEFVK([AEEA-AEEA-γGlu-Palmitoyl(16-(5-tetrazolyl))])WLLST-OH) showed a pEC50 of 9.87.
Compound `CC(C)C[C@H](NC(=O)[C@H](Cc1ccc(O)cc1)NC(=O)[C@H](CCCCN)NC(=O)[C@H](CO)NC(=O)[C@H](Cc1ccc(O)cc1)NC(=O)[C@H](CC(=O)O)NC(=O)[C@H](CO)NC(=O)[C@@H](NC(=O)[C@H](Cc1ccccc1)NC(=O)[C@@H](NC(=O)CNC(=O)[C@H](CCC(N)=O)NC(=O)[C@H](CO)NC(=O)[C@@H](N)Cc1c[nH]cn1)[C@@H](C)O)[C@@H](C)O)C(=O)N[C@@H](CC(=O)O)C(=O)N[C@@H](CO)C(=O)N[C@@H](CCCCN)C(=O)N[C@@H](CCCCN)C(=O)N[C@@H](C)C(=O)N[C@@H](CCC(N)=O)C(=O)N[C@@H](CCC(=O)O)C(=O)N[C@@H](Cc1ccccc1)C(=O)N[C@H](C(=O)N[C@@H](CCCCNC(=O)COCCOCCNC(=O)CC[C@H](NC(=O)CCCCCCCCCCCCCCCCC(=O)O)C(=O)O)C(=O)N[C@@H](Cc1c[nH]c2ccccc12)C(=O)N[C@@H](CC(C)C)C(=O)N[C@@H](CC(C)C)C(=O)N[C@@H](CO)C(=O)N[C@H](C(=O)O)[C@@H](C)O)C(C)C` [Example 71, N^ε24-[2-[2-[2-[[(4S)-4-carboxy-4-(17-carboxyheptadecanoylamino)butanoyl]amino]ethoxy]ethoxy]acetyl]-[Lys^17,Lys^18,Glu^21,Lys^24,Leu^27,Ser^28]-Glucagon] (H-HSQGTFTSDYSKYLDSKKAQEFVK([AEEA-γGlu-C18 diacid])WLLST-OH) gave a pEC50 of 10.49.
On the same count and under the same terms, for `CC(C)C[C@H](NC(=O)[C@H](Cc1ccc(O)cc1)NC(=O)[C@H](CCCCN)NC(=O)[C@H](CO)NC(=O)[C@H](Cc1ccc(O)cc1)NC(=O)[C@H](CC(=O)O)NC(=O)[C@H](CO)NC(=O)[C@@H](NC(=O)[C@H](Cc1ccccc1)NC(=O)[C@@H](NC(=O)CNC(=O)[C@H](CCC(N)=O)NC(=O)[C@H](CO)NC(=O)[C@@H](N)Cc1c[nH]cn1)[C@@H](C)O)[C@@H](C)O)C(=O)N[C@@H](CC(=O)O)C(=O)N[C@@H](CO)C(=O)N[C@@H](CCCCN)C(=O)N[C@@H](CCCCN)C(=O)N[C@@H](C)C(=O)N[C@@H](CCC(N)=O)C(=O)N[C@@H](CCC(=O)O)C(=O)N[C@@H](Cc1ccccc1)C(=O)N[C@H](C(=O)N[C@@H](CCCCNC(=O)COCCOCCNC(=O)COCCOCCNC(=O)[C@H](CCC(=O)O)NC(=O)CCCCCCCCCCCCCCCCC(=O)O)C(=O)N[C@@H](Cc1c[nH]c2ccccc12)C(=O)N[C@@H](CC(C)C)C(=O)N[C@@H](CC(C)C)C(=O)N[C@@H](CO)C(=O)N[C@H](C(=O)O)[C@@H](C)O)C(C)C` [Example 72, N^ε24-[2-[2-[2-[[2-[2-[2-[[(2S)-4-carboxy-2-(17-carboxyheptadecanoylamino)butanoyl]amino]ethoxy]ethoxy]acetyl]amino]ethoxy]ethoxy]acetyl]-[Lys17,Lys18,Glu21,Lys24,Leu27,Ser28]-Glucagon] (H-HSQGTFTSDYSKYLDSKKAQEFVK([AEEA-AEEA-Glu-C18 diacid])WLLST-OH) the value was 10.24.
Same read-out and setting: for `CC(C)C[C@H](NC(=O)[C@H](Cc1ccc(O)cc1)NC(=O)[C@H](CCCCN)NC(=O)[C@H](CO)NC(=O)[C@H](Cc1ccc(O)cc1)NC(=O)[C@H](CC(=O)O)NC(=O)[C@H](CO)NC(=O)[C@@H](NC(=O)[C@H](Cc1ccccc1)NC(=O)[C@@H](NC(=O)CNC(=O)[C@H](CCC(N)=O)NC(=O)[C@H](CO)NC(=O)[C@@H](N)Cc1c[nH]cn1)[C@@H](C)O)[C@@H](C)O)C(=O)N[C@@H](CC(=O)O)C(=O)N[C@@H](CO)C(=O)N[C@@H](CCCCN)C(=O)N[C@@H](CCCCN)C(=O)N[C@@H](C)C(=O)N[C@@H](CCC(N)=O)C(=O)N[C@@H](CCC(=O)O)C(=O)N[C@@H](Cc1ccccc1)C(=O)N[C@H](C(=O)N[C@@H](CCCNC(=O)COCCOCCNC(=O)COCCOCCNC(=O)CC[C@H](NC(=O)CCCCCCCCCCCCCCCCC(=O)O)C(=O)O)C(=O)N[C@@H](Cc1c[nH]c2ccccc12)C(=O)N[C@@H](CC(C)C)C(=O)N[C@@H](CC(C)C)C(=O)N[C@@H](CO)C(=O)N[C@H](C(=O)O)[C@@H](C)O)C(C)C` [Example 73, N^ε24-[2-[2-[2-[[2-[2-[2-[[(4S)-4-carboxy-4-(17-carboxyheptadecanoylamino)butanoyl]amino]ethoxy]ethoxy]acetyl]amino]ethoxy]ethoxy]acetyl]-[Lys^17,Lys^18,Glu^21,Orn^24,Leu^27,Ser^28]-Glucagon] (H-HSQGTFTSDYSKYLDSKKAQEFV[Orn]([AEEA-AEEA-γGlu-C18 diacid])WLLST-OH) the value was 10.44.
The same measure, in the same setting: for `CC(C)C[C@H](NC(=O)[C@H](Cc1ccc(O)cc1)NC(=O)[C@H](CCCCN)NC(=O)[C@H](CO)NC(=O)[C@H](Cc1ccc(O)cc1)NC(=O)[C@H](CC(=O)O)NC(=O)[C@H](CO)NC(=O)[C@@H](NC(=O)[C@H](Cc1ccccc1)NC(=O)[C@@H](NC(=O)CNC(=O)[C@H](CCC(N)=O)NC(=O)[C@H](CO)NC(=O)[C@@H](N)Cc1c[nH]cn1)[C@@H](C)O)[C@@H](C)O)C(=O)N[C@@H](CC(=O)O)C(=O)N[C@@H](CO)C(=O)N[C@@H](CCCCN)C(=O)N[C@@H](CCCCN)C(=O)N[C@@H](C)C(=O)N[C@@H](CCC(N)=O)C(=O)N[C@@H](CCC(=O)O)C(=O)N[C@@H](Cc1ccccc1)C(=O)N[C@H](C(=O)N[C@@H](CCC(N)=O)C(=O)N[C@@H](Cc1c[nH]c2ccccc12)C(=O)N[C@@H](CC(C)C)C(=O)N[C@@H](CC(C)C)C(=O)N[C@@H](CC(N)=O)C(=O)N[C@H](C(=O)O)[C@@H](C)O)C(C)C` [[K^17, K^18, E^21, L^27] Glucagon, H—HSQGTFTSDYSKYLDSKKAQEFVQWLLNT—OH, reference compound] (H-HSQGTFTSDYSKYLDSKKAQEFVQWLLNT-OH) the value was 11.52.

These data come from patent US20170051034A1 (Novo Nordisk A/S, priority 2010, published 2017).
